Columns and labels:
[1] = target: T1, MNK1 (Homo sapiens, UniProt Q9BUB5); assay: radiometric kinase assay (33PanQinase Activity Assay), MNK1; type: biochemical
T1 construct: purchased Proqinase
Protocol: The kinase activity of the compound was measured by a radiometric kinase assay (^33PanQinase® Activity Assay) carried out by Proqinase (www.proqinase.com).
The assays were carried out in 96-well FlashPlates™ by PerkinElmer (Boston, Mass., USA) with a reaction volume of 50 μl. The reaction cocktail was pipetted in 4 steps: (1) 20 μl buffer, (2) 5 μl ATP solution (in H2O), (3) 5 μl compound (in 10% DMSO) and (4) 20 μl enzyme/substrate mixture. Lastly, the cocktail contained 70 mM HEPES-NaOH pH 7.5, 3 mM MgCl2, 3 mM MnCl2, 3 μM sodium orthovanadate, 1.2 mM DTT, 50 μg/ml PEG20000, ATP (1 μM for MNK1 and 0.3 μM for MNK2), [γ-^33P]-ATP (approx. […] per well), protein kinase (variable amounts depending on the batch) and substrate (2 μg/50 μl).
Reaction cocktails were incubated at 30° C. for 60 minutes. The reaction was stopped with 50 μl of 2% H3PO4 (v/v), the plates were sucked, they were washed twice with 200 μl of 0.9% NaCl (w/v) and the incorporation of ^33Pi (MicroBeta microplate scintillation counter, Wallac) was determined. All assays were performed with a Beckman Coulter/SAGIAN™ system.
The residual activity (in %) for each well of a particular plate was calculated using the following formula (wherein high control is the kinase activity in absence of an inhibitor and low control is the radioactivity value of the substrate in absence of a kinase).
To screen compounds, the residual activity of both kinases was analysed after treatment with 10 μM of the compounds.
To study selectivity, residual activity was measured at 1 μM from a 320-kinase panel.

[2] = tested on: MCF7 cells; assay: cell growth of MCF7 cells with tamoxifen (crystal violet); type: cell-based; conditions: combination with tamoxifen
Protocol: (§1) Commercially available MDA-MB-231, MDA-MB-468, MCF7 and A375M, IMR90 (IMR-90 (ATCC® CCL-186TH) cells were grown at 37° C. and 5% CO2 in DMEM medium (Dulbecco's Modified Eagle Medium, 4.5 g/I glucose; 30 mg/I L-Glutamine (Gibco)) supplemented with 10% foetal bovine serum, 100 U/ml penicillin and 100 μg/ml streptomycin.
Cell growth in the presence of EB1, tamoxifen or the combination of both inhibitors was measured by crystal violet. Data were normalized to the vehicle control.

[3] = tested on: eIF4E phosphorylation in leukaemia cells (MV4-11); assay: titration of eIF4E phosphorylation in MV4-11 cells; type: cell-based
Protocol: MV4-11 cells were grown in IMDM medium (Iscove's Modified Dulbecco's Medium, Gibco) supplemented with 10% FBS, 1% L-glutamine, 100 U/ml penicillin and 100 μg/ml streptomycin.
(§2) Inhibition of eIF4E phosphorylation was quantified by Western Blot. Cells were seeded in 60 mm plates (700,000 cells for 24 h, 500,000 cells for 48 h and 300,000 cells for 72 h).
(§3) After 24 h, the treatments were added. The stocks of compounds were prepared in […] at a concentration 200 times more concentrated than the treatment concentration. Thus, in all cases, the final concentration of DMSO in the medium was 0.5%.
(§4) After incubation, proteins were removed and Western Blot was performed. On ice, the plates were washed with PBS and the cells were lysed with 60 μl lysis buffer (50 mM Tris, 200 mM NaCl, 5 mM EDTA, 0.1% Triton 100×, pH 7.5 supplemented with protease inhibitors (EDTA-free Protease Inhibitor Cocktail Set III, Calbiochem) and phosphatase inhibitors (Phosphatase Inhibitor Cocktail Set II, Calbiochem)). The samples were centrifuged at 15,000 g and the supernatant was quantified by the Bradford method. The samples were all diluted to the same concentration with a lysis buffer and loading buffer (Laemmli buffer) and denatured for 5 minutes at 95° C. […] Selectivity against MNK was analysed with ERK, p-ERK, MNK1, p-MNK1, 4EBP1 and p-4EBP1 antibodies. […]

[4] = tested on: 22Rv1 cells; assay: apoptosis assay of 22Rv1 cells (Propidium Iodide staining); type: cell-based; conditions: 22Rv1, 72 h, dual treatment EB1 and Enzalutamide
Protocol: Dual inhibition of AR and eIF4E phosphorylation induces cell death via apoptosis. […] With this aim, 22Rv1 (A) cells were treated either with vehicle (DMSO), enzalutamide, EB1 or a combination of both with the indicated concentrations for 72 h. Whole cell lysates were then prepared and subjected to western blot analysis with the indicated antibodies. […] Increase in CI-PARP levels indicated apoptotic induction under the combinatory treatment. (B) Apoptosis assays of 22Rv1 cell line after treatment with the indicated concentrations of Enzalutamide, EB1 and the combination of both for 72 h, quantified by analysis of fragmented/condensed chromatin after Propidium Iodide staining. […] Representative Propidium Iodide and Hoechst staining images of 22Rv1 cell line were obtained, although data are not shown. Data are mean of two technical replicates from one experiment ±SEM ***p<0.001 two-tailed Student's test

[5] = tested on: eIF4E phosphorylation in melanoma cells (A375M); assay: titration of eIF4E phosphorylation in A375M cells; type: cell-based
Protocol: as §1, §2, §3
as §4, with “method.” for “method. The samples were all diluted to the same concentration with a lysis buffer and loading buffer (Laemmli buffer) and denatured for 5 minutes at 95° C.”

T1 sequence (Q9BUB5 whole entry): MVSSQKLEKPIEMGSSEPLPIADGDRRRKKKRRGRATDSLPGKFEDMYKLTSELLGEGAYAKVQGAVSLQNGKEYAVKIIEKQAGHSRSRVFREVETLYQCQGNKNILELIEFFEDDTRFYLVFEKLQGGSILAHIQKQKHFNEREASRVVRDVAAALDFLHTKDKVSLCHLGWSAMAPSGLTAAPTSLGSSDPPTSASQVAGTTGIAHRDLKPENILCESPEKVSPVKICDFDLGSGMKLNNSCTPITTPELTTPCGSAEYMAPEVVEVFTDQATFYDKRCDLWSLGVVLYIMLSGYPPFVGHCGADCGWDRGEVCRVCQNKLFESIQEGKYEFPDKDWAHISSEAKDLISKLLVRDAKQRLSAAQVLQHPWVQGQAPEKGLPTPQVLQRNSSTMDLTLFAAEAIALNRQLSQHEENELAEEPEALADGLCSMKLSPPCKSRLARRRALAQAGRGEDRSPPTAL

**Q.** How did the remaining activity at 10 µM ([1]; after treatment with 10 μM compound, ATP 1 μM, read-out: residual activity of MNK1) turn out when `Nc1n[nH]c2nc(-c3ccccc3)cc(-c3ccccc3)c12` [EB1, 4,6-diphenyl-1H-pyrazolo[3,4-b]pyridin-3-amine] was run?
**A.** 14%

**Q.** And the inhibition at 1 µM ([1]; at 1 uM, kinase panel)?
**A.** 48%

**Q.** What about the “sensitivity of MCF7 cells to tamoxifen” value [2] of the same molecule?
**A.** increased sensitivity to tamoxifen

**Q.** And the “activity as MNK inhibitor (eIF4E phosphorylation)” value [3]?
**A.** active

**Q.** What about the apoptotic cell population [4] of the same molecule?
**A.** Remarcable increase in apoptotic cell population

**Q.** And the “activity as MNK inhibitor (eIF4E phosphorylation)” value [5]?
**A.** active

From patent publication US20220257571A1, “INHIBITOR OF MAP KINASE INTERACTING SERINE/THREONINE KINASE 1 (MNK1) AND MAP KINASE INTERACTING SERINE/THREONINE KINASE 2 (MNK2), CANCER THERAPY AND THERAPEUTIC COMBINATIONS” (FUNPACIÓ HOSPITAL UNIVERSITARI VALL D'HEBRON - INSTITUT DE …, priority 2019, published 2022)
